In ChEMBL document CHEMBL1177814, “Antitumor agents 278. 4-Amino-2H-benzo[h]chromen-2-one (ABO) analogs as potent in vitro anti-cancer agents” (2010):

Columns and labels:
Type in all cases: functional
A549 = assay: Cytotoxicity against human A549 cells after 72 hrs by SRB assay; conditions: A549, 72 h, read-out: ED50 (the source's name)
MDA-MB-231 = assay: Cytotoxicity against human MDA-MB-231 cells after 72 hrs by SRB assay; conditions: MDA-MB-231, 72 h, read-out: ED50 (the source's name)
[1] = Cytotoxicity against human KBVIN cells after 72 hrs by SRB assay; conditions: read-out: ED50 (the source's name)
KB = assay: Cytotoxicity against human KB cells after 72 hrs by SRB assay; conditions: read-out: ED50 (the source's name)
ZR-75-1 = assay: Cytotoxicity against human ZR-75-1 cells after 72 hrs by SRB assay; conditions: ZR-75-1, 72 h, read-out: ED50 (the source's name)
DU-145 = assay: Cytotoxicity against human DU145 cells after 72 hrs by SRB assay; conditions: DU-145, 72 h, read-out: ED50 (the source's name)
SK-BR-3 = assay: Cytotoxicity against human SK-BR-3 cells after 72 hrs by SRB assay; conditions: SK-BR-3, 72 h, read-out: ED50 (the source's name)

Compound	EC50 (A549) [nM]	EC50 (MDA-MB-231) [nM]	EC50 [1] [nM]	EC50 (KB) [nM]	EC50 (ZR-75-1) [nM]	EC50 (DU-145) [nM]	EC50 (SK-BR-3) [nM]
O=c1cc(N2CCCCC2)c2ccc3ccccc3c2o1	> 30000	30000	10900	> 30000	> 30000	> 30000	> 30000
O=c1cc(Nc2ccccc2Br)c2ccc3ccccc3c2o1	190	2600	150	160	380	230	260
Cc1cccc(Nc2cc(=O)oc3c2ccc2ccccc23)c1	150	760	140	140	80	140	150
COc1cccc(Nc2cc(=O)oc3c2ccc2ccccc23)c1	290	1300	170	220	500	270	300
O=c1cc(Nc2cccc(Br)c2)c2ccc3ccccc3c2o1	> 30000	> 30000	> 30000	> 30000	> 30000	> 30000	> 30000
O=c1cc(NC2CC2)c2ccc3ccccc3c2o1	29800	10000	9900	7800	19500	9600	20800
O=c1cc(NC2CCCCC2)c2ccc3ccccc3c2o1	720	4100	430	610	5800	970	1300
COC(=O)CNc1cc(=O)oc2c1ccc1ccccc12	4700	4200	3100	4600	6700	4100	3800
O=c1cc(Nc2ccc(Br)cc2)c2ccc3ccccc3c2o1	720	6800	470	410	3100	520	500
Cc1ccccc1Nc1cc(=O)oc2c1ccc1ccccc12	1300	8300	840	2100	4300	1300	1600
COc1ccccc1Nc1cc(=O)oc2c1ccc1ccccc12	600	7300	470	500	4700	760	640
CCc1cccc2c1ccc1c(NCC(=O)N(C)OC)cc(=O)oc12	17600	> 30000	19700	21500	18200	16200	17400
O=c1cc(Nc2cccc3ccccc23)c2ccc3ccccc3c2o1	250	470	200	270	530	300	320
CCCN(CCC)c1cc(=O)oc2c1ccc1ccccc12	> 30000	30000	20800	> 30000	> 30000	> 30000	> 30000
CON(C)C(=O)CNc1cc(=O)oc2c1ccc1ccccc12	3100	5800	3000	2200	480	3200	4500
O=c1cc(Nc2ccccc2)c2ccc3ccccc3c2o1	980	270	500	440	910	820	1600
Cc1ccc(Nc2cc(=O)oc3c2ccc2ccccc23)cc1	250	15300	170	220	13000	370	380
CNc1cc(=O)oc2c1ccc1ccccc12	> 30000	> 30000	> 30000	> 30000	> 30000	> 30000	> 30000
CCCNc1cc(=O)oc2c1ccc1ccccc12	> 30000	19800	10600	> 30000	> 30000	> 30000	> 30000
CCc1ccc(Nc2cc(=O)oc3c2ccc2ccccc23)cc1	200	1400	180	280	790	300	300
COc1ccc(Nc2cc(=O)oc3c2ccc2ccccc23)cc1	170	20	130	110	10	110	130
O=c1cc(Nc2ccc(F)cc2)c2ccc3ccccc3c2o1	810	> 30000	510	1200	3200	780	1100
O=c1cc(N2CCOCC2)c2ccc3ccccc3c2o1	> 30000	> 30000	> 30000	> 30000	3900	> 30000	> 30000
Cc1cccc2c1ccc1c3occ(C)c3c(=O)oc21	> 30000	> 30000	> 30000	> 30000	950	> 30000	950
